Measurements taken from PMC7851014 (Investigational New Drugs, 2020).
Like-named read-outs stand apart in the source and are kept apart here.

Tests used:
[1] = Human ibrutinib metabolism during CYP3A4 inhibition (patient C, plasma, concomitant voriconazole); conditions: for half-life / AUC(0-t): human, plasma, oral; for AUC(0-t): 140 mg; for Exposure relative to Sum of quantified compounds / Exposure relative to ibrutinib: patient C, AUC0-24h,ss, concomitant voriconazole
Protocol: (§1) For analysis, 200 μL acetonitrile containing the internal standards was added to 100 μL sample. After mixing and centrifuging, 200 μL supernatant was transferred, and thereafter the solvent was partially evaporated. Before the samples were analyzed by ultra-high-performance liquid chromatography with mass spectrometer detection [21], 100 μL of mobile phase (water:acetonitrile:formic acid, 90:10:0.1 (v:v:v)) was added.
Time-concentration data of three patients were analyzed. […] When no time was available at all, the sample was omitted. […] Pharmacokinetic (PK) data was analyzed using the PKNCA package (version 0.8.1) [22] for the statistical software R (version 3.4.2) [23] and RStudio (version 1.1.383) [24].

[2] = Ibrutinib and SMT-conjugate pharmacokinetics in human subjects (plasma of patients A and B); conditions: for Tmax / half-life / concentration at 1.4 h / concentration at 0.5 h / concentration at 0.8 h / concentration at 22.7 h / concentration at 22.2 h / concentration at 22.6 h / concentration at 2.5 h / concentration at 3.8 h / concentration at 1.5 h / concentration at 23.3 h / concentration at 2.8 h / concentration at 4.1 h / concentration at 4.4 h / concentration at 2.4 h / concentration at 3.9 h: human; for concentration at 2.5 h: sample ID 13, T 2.5 h; for concentration at 2.5 h / concentration at 3.8 h / concentration at 2.8 h / concentration at 4.1 h / concentration at 4.4 h / concentration at 2.4 h / concentration at 3.9 h: group max; for concentration at 2.8 h: sample ID 4, T 2.8 h; for concentration at 2.4 h: sample ID 12, T 2.4 h; for concentration at 3.9 h: sample ID 17, T 3.9 h
Protocol: as §1
When no time was available at all, the sample was omitted. […] Pharmacokinetic (PK) data was analyzed using the PKNCA package (version 0.8.1) [22] for the statistical software R (version 3.4.2) [23] and RStudio (version 1.1.383) [24].

[3] = Metabolism of IGSH in culture medium; assay type: in vitro ADME
Protocol: During ibrutinib incubations, IGSH was formed intracellularly and transported extracellularly where it was metabolized to ICGS and further to ICYS. IGSH and ICYS were mainly found intracellularly. […] Medium composition influences the metabolism of IGSH. IGSH was metabolized 32% faster in medium with 10% calf serum, when compared to serum-free samples. Medium that was pre-incubated with ciPTEC for 48 h (conditioned medium) was included in the experiments to investigate the possible role of secreted enzymes in the medium. The metabolism of IGSH to ICGS appeared to be 36% faster in conditioned medium.

[4] = Half-life of IGSH in human plasma; assay type: in vitro ADME; conditions: 37 °C, in vitro
ɣ-GT from equine kidney = experiment: ɣ-glutamyl transferase assay (conversion of IGSH to ICGS); assay type: biochemical; conditions: approximate kinetic parameters
Protocol: IGSH was incubated with 50 mU/L ɣ-GT in a concentration range of 10–10,000 nM in phosphate buffer (100 mM, pH 7.4) at 37 °C. Michaelis-Menten kinetics were calculated by Eadie-Hofstee transformation.

ciPTEC = conditions: for detection as secondary bioactivation-metabolite of ICYS: ciPTEC
Protocol: Medium and cell lysate samples were taken at 1, 2, 3 and 4 h. Each time point was measured in duplicate. Preincubation (t0) analyte concentrations in medium were also analyzed.

BCRP = system: BCRP; parameters: method as in PMID 27001813; conditions: cited from earlier work
ɣ-GT [5] = target: T1, ɣ-GT (Homo sapiens, UniProt P19440); experiment: ɣ-GT inhibition in ciPTEC; assay type: cell-based; conditions: 100 μM acivicin pre-incubation 2.5 h, 2 μM ibrutinib, 4 h, intra- and extracellularly
T1 construct: host or cells: ciPTEC (human conditionally immortalized proximal tubule epithelial cells)
T1 sequence (P19440 whole entry): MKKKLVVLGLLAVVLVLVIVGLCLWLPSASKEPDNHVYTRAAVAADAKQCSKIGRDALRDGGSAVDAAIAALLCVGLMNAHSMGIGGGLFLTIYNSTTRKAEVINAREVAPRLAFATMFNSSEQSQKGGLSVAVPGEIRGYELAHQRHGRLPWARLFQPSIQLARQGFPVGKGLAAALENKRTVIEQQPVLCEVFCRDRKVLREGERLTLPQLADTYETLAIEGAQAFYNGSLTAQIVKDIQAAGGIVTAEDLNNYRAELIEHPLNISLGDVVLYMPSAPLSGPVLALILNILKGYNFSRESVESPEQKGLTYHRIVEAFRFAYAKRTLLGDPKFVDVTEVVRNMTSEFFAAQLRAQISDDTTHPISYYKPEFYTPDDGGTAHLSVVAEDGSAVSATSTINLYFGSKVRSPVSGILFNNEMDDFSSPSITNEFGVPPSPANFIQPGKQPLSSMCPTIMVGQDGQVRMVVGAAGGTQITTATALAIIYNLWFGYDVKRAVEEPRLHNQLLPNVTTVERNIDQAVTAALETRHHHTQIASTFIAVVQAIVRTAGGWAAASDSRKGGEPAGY
Protocol: The formation of metabolites in medium and cells was monitored after 4 h. Ɣ-GT activity in human plasma and calf serum was measured on a Beckmann Coulter AU5800 (Fullerton, CA, USA) clinical chemistry analyzer, with a limit of quantitation of 1 U/L.

ɣ-GT [6] = system: ɣ-GT; parameters: method as in PMID 9178957; conditions: cited from earlier work
dehydropeptidase I = conditions: cited from earlier work
GST [7] = experiment: GST activity in ciPTEC lysate; conditions: 100 μM, pre-incubating lysate for 2.5 h
GST [8] = system: GST; parameters: method as in PMID 8706007; conditions: cited from earlier work
[9] = 420 mg, patient A, sample ID 2, T 1.4 h, 1xdd 420mg, group abs
[10] = 420 mg, patient A, sample ID 5, T 0.5 h, 1xdd 420mg, group abs
[11] = 420 mg, patient A, sample ID 6, T 0.8 h, 1xdd 420mg, group abs
[12] = 420 mg, patient A, sample ID 8, T 22.7 h, 1xdd 420mg, group trough
[13] = 420 mg, patient A, sample ID 10, T 22.2 h, 1xdd 420mg, group trough
[14] = 420 mg, patient A, sample ID 11, T 22.6 h, 1xdd 420mg, group trough
[15] = 420 mg, patient A, sample ID 14, T 3.8 h, 1xdd 420mg
[16] = 420 mg, patient A, sample ID 16, T 1.5 h, 1xdd 420mg, group abs
[17] = 420 mg, patient A, sample ID 19, T 23.3 h, 1xdd 420mg, group trough
[18] = 420 mg, patient A, sample ID 21, T 0.8 h, 1xdd 420mg, group abs
[19] = 560 mg, patient A, sample ID 3, T 0.8 h, 1xdd 560mg, group abs
[20] = 560 mg, patient B, sample ID 7, T 4.1 h, 1xdd 560mg
[21] = 560 mg, patient B, sample ID 9, T 4.4 h, 1xdd 560mg
[22] = 560 mg, patient B, sample ID 20, T 3.8 h, 1xdd 560mg
[23] = 560 mg, patient B, sample ID 23, T 4.1 h, 1xdd 560mg
[24] = 560 mg, patient B, sample ID 24, T 4.4 h, 1xdd 560mg
[25] = patient A, sample ID 15, T NA, 1xdd 420mg, omitted (no group)
[26] = patient A, sample ID 22, T NA, 1xdd 420mg, omitted (no group)

half-life [1]	AUC(0-t) [1]	Exposure relative to Sum of quantified compounds [1]	Exposure relative to ibrutinib [1]	Tmax [2]	half-life [2]	concentration at 1.4 h [2, 9]	concentration at 2.5 h ([2]; 420 mg, patient A, 1xdd 420mg)	concentration at 3.8 h [2, 15]	concentration at 0.8 h [2, 19]	concentration at 2.8 h ([2]; 560 mg, patient B, 1xdd 560mg)	concentration at 4.1 h [2, 20]	concentration at 4.4 h [2, 21]	concentration at 2.4 h ([2]; 560 mg, patient B, 1xdd 560mg)	concentration at 3.9 h ([2]; 560 mg, patient B, 1xdd 560mg)	concentration at 3.8 h [2, 22]	concentration at 4.1 h [2, 23]	concentration at 4.4 h [2, 24]	Concentration [2, 25]	Concentration [2, 26]	Compound	other results
2.46 days	0.149 µM·h	23%	46%	3.9 h	366 min	43.9 nM	404 nM	195 nM	17.5 nM	346 nM	523 nM	393 nM	450 nM	542 nM	524 nM	468 nM	484 nM	59.3 nM	< LLOQ	Nc1ncnc2c1c(-c1ccc(Oc3ccccc3)cc1)nn2[C@@H]1CCCN(C(=O)C(O)CO)C1 (some centres unmarked) [DHI, dihydrodiol-ibrutinib]	concentration at 0.5 h [2, 10]: 51.6 nM; concentration at 0.8 h [2, 11]: 48.3 nM; concentration at 22.7 h [2, 12]: 86.6 nM; concentration at 22.2 h [2, 13]: 90.7 nM; concentration at 22.6 h [2, 14]: 45.3 nM; concentration at 1.5 h [2, 16]: 24 nM; concentration at 23.3 h [2, 17]: 30.5 nM; concentration at 0.8 h [2, 18]: 188 nM
1.67 days	0.0949 µM·h	14%	29%	2.6 h	180 min	6.7 nM	412 nM	72.5 nM	9.7 nM	160 nM	191 nM	88.1 nM	73.2 nM	226 nM	78 nM	239 nM	160 nM	5.1 nM	< LLOQ	Nc1ncnc2c1c(-c1ccc(Oc3ccccc3)cc1)nn2[C@@H]1CCCN(C(=O)CCSC[C@H](N)C(=O)NCC(=O)O)C1 [ICGS]	concentration at 0.5 h [2, 10]: 5.4 nM; concentration at 0.8 h [2, 11]: 7.3 nM; concentration at 22.7 h [2, 12]: 5.6 nM; concentration at 22.2 h [2, 13]: 3.7 nM; concentration at 22.6 h [2, 14]: 3 nM; concentration at 1.5 h [2, 16]: 2.2 nM; concentration at 23.3 h [2, 17]: 0.6 nM; concentration at 0.8 h [2, 18]: 11.9 nM
3.26 days	0.0877 µM·h	13%	27%	4.4 h	252 min	5 nM	186 nM	32.1 nM	3.9 nM	92.8 nM	170 nM	89.2 nM	210 nM	143 nM	78.7 nM	194 nM	210 nM	12.1 nM	< LLOQ	Nc1ncnc2c1c(-c1ccc(Oc3ccccc3)cc1)nn2[C@@H]1CCCN(C(=O)CCSC[C@H](N)C(=O)O)C1 [ICYS]	concentration at 0.5 h [2, 10]: 5.1 nM; concentration at 0.8 h [2, 11]: 5.6 nM; concentration at 22.7 h [2, 12]: 6.4 nM; concentration at 22.2 h [2, 13]: 5 nM; concentration at 22.6 h [2, 14]: 4.7 nM; concentration at 1.5 h [2, 16]: 2.3 nM; concentration at 23.3 h [2, 17]: 2.6 nM; concentration at 0.8 h [2, 18]: 12 nM
				2.8 h			1.5 nM	0.5 nM	0.5 nM	3.5 nM	1.5 nM	0.8 nM	0.8 nM	1.9 nM	0.8 nM	2.2 nM	1.4 nM	< LLOQ	< LLOQ	Nc1ncnc2c1c(-c1ccc(Oc3ccccc3)cc1)nn2[C@@H]1CCCN(C(=O)CCSC[C@H](NC(=O)CC[C@H](N)C(=O)O)C(=O)NCC(=O)O)C1 [IGSH]	metabolism of IGSH to ICGS faster ([3]; conditioned medium (pre-incubated with ciPTEC for 48 h)): 36%; IGSH metabolized faster ([3]; medium with 10% calf serum compared to serum-free samples): 32%; half-life at 500 nM [4]: 30 min; Km (ɣ-GT from equine kidney): 588 nM; Vmax (ɣ-GT from equine kidney): 25.8 μmol∙min^−1∙U^−1; uptake into ciPTEC (ciPTEC; incubating with IGSH (1 μM) directly for 4 h): no uptake; Concentration ([2]; patient A, sample ID 2, T 1.4 h, 1xdd 420mg, group abs): < LLOQ; Concentration ([2]; patient A, sample ID 5, T 0.5 h, 1xdd 420mg, group abs): < LLOQ; Concentration ([2]; patient A, sample ID 6, T 0.8 h, 1xdd 420mg, group abs): < LLOQ; Concentration ([2]; patient A, sample ID 8, T 22.7 h, 1xdd 420mg, group trough): < LLOQ; Concentration ([2]; patient A, sample ID 10, T 22.2 h, 1xdd 420mg, group trough): < LLOQ; Concentration ([2]; patient A, sample ID 11, T 22.6 h, 1xdd 420mg, group trough): < LLOQ; Concentration ([2]; patient A, sample ID 16, T 1.5 h, 1xdd 420mg, group abs): < LLOQ; Concentration ([2]; patient A, sample ID 19, T 23.3 h, 1xdd 420mg, group trough): < LLOQ; Concentration ([2]; patient A, sample ID 21, T 0.8 h, 1xdd 420mg, group abs): < LLOQ; Ctrough ([2]; patients A and B, 'trough' samples n = 4, mean ± SD (range)): <0.5 nM
																				CSCCC(=O)N1CCC[C@@H](n2nc(-c3ccc(Oc4ccccc4)cc3)c3c(N)ncnc32)C1 [S-methyl-ibrutinib]	detection as secondary bioactivation-metabolite of ICYS (ciPTEC; after 48 h with ibrutinib): detected
																				C[C@@H](c1ncncc1F)[C@](O)(Cn1cncn1)c1ccc(F)cc1F [Voriconazole]	inhibition of BCRP (BCRP): some inhibition
																				N[C@H](C(=O)O)[C@@H]1CC(Cl)=NO1 [acivicin]	effect on metabolism of IGSH in ciPTEC (ɣ-GT [5]): blocked; IC99 (ɣ-GT [6]): 50 µM
																				CC1(C)C[C@@H]1C(=O)N/C(=C\CCCCSC[C@H](N)C(=O)O)C(=O)O [cilastatin]	IC50 (dehydropeptidase I): 100 µM
																				C=C(CC)C(=O)c1ccc(OCC(=O)O)c(Cl)c1Cl [ethacrynic acid]	effect on formation of IGSH in ciPTEC lysate (GST [7]): inhibited; IC97 (GST [8]): 15 µM
																				Nc1ncnc2c1c(-c1ccc(Oc3ccccc3)cc1)nn2C1CCCN(C(=O)CCSC2OC(C(=O)O)C(O)C(O)C2O)C1 (centres unmarked) [ibrutinib-S-glucuronide]	detection as secondary bioactivation-metabolite of ICYS (ciPTEC; 4 h incubation with ibrutinib): clearly found
